Converted amounts (≈) assume the structure as drawn.
Assay: aqueous solubility
Assay type: physicochemical

aqueous solubility: 100 µg/mL (≈ 172 µM)
SMILES: COc1ccc(C2=N[C@@H](c3ccc(Cl)cc3)[C@@H](c3ccc(Cl)cc3)N2C(=O)N2CCNC(=O)C2)c(OC(C)C)c1 [Nutlin-3a, nutlin-3a]
